From publication PMC3382598, “Functional Metagenomics Unveils a Multifunctional Glycosyl Hydrolase from the Family 43 Catalysing the Breakdown of Plant Polymers in the Calf Rumen” (PLoS ONE, 2012)

test system: T1, R_09-02; experiment: p-nitrophenol release at […] nm; Michaelis-Menten fit; format: biochemical; conditions: pH 6.0 (20 mM sodium acetate), 34°C; read-out: K m (mM)^1
T1 construct: recombinant in E. coli, His6-tag purification; tetramer approx. 200 kDa; second CDS of 3264 bp r_09 insert; W82, H301, R327 conserved residues; N-terminal GH43 domain plus C-terminal beta-sandwich (CBM6-like)

Row | Km [mM] | Structure (SMILES)
1 | 0.37 ± 0.12 | O=[N+]([O-])c1ccc(O[C@@H]2O[C@H](CO)[C@H](O)[C@H](O)[C@H]2O)cc1 [pNPβGal]
2 | 4.84 ± 1.27 | O=[N+]([O-])c1ccc(O[C@H]2O[C@H](CO)[C@@H](O)[C@H](O)[C@H]2O)cc1 [pNPαG]
3 | 9.74 ± 0.41 | O=[N+]([O-])c1ccc(O[C@H]2O[C@H](CO)[C@@H](O[C@H]3O[C@H](CO)[C@@H](O)[C@H](O)[C@H]3O)[C@H](O)[C@H]2O)cc1 [pNPαMal]
4 | 4.4 ± 0.76 | O=[N+]([O-])c1ccc(O[C@@H]2OC[C@@H](O)[C@H](O)[C@H]2O)cc1 [pNPβX]
5 | 0.57 ± 0.15 | O=[N+]([O-])c1ccc(O[C@@H]2O[C@@H](CO)[C@H](O)[C@H]2O)cc1 [pNPαAf]
6 | 6.98 ± 0.79 | O=[N+]([O-])c1ccc(O[C@@H]2OC[C@H](O)[C@H](O)[C@H]2O)cc1 [pNPαAp]

test system: T1, R_09-02; experiment: released xylose, D-xylose assay kit; Michaelis-Menten fit; format: biochemical; conditions: pH 6.0 (20 mM sodium acetate), 34°C; read-out: K m (mM)^1
Text: released xylose, D-xylose assay kit; Michaelis-Menten fit on R_09-02

Row | Km [mM] | Structure (SMILES)
7 | 0.012 ± 0.002 | OC1OC[C@@H](O[C@@H]2OC[C@@H](O)[C@H](O)[C@H]2O)[C@H](O)[C@H]1O (stereo partly drawn) [1,4-β-Xylobiose]
8 | 0.29 ± 0.02 | OC1OC[C@@H](O[C@@H]2OC[C@@H](O[C@@H]3OC[C@@H](O)[C@H](O)[C@H]3O)[C@H](O)[C@H]2O)[C@H](O)[C@H]1O (stereo partly drawn) [1,4-β-Xylotriose]
9 | 0.33 ± 0.07 | OC1OC[C@@H](O[C@@H]2OC[C@@H](O[C@@H]3OC[C@@H](O[C@@H]4OC[C@@H](O)[C@H](O)[C@H]4O)[C@H](O)[C@H]3O)[C@H](O)[C@H]2O)[C@H](O)[C@H]1O (stereo partly drawn) [1,4-β-Xylotetraose]
10 | 1.58 ± 0.19 | OC1[C@H](O)CO[C@@H](O[C@@H]2CO[C@@H](O[C@@H]3CO[C@@H](O[C@@H]4CO[C@@H](O[C@@H]5COC(O)[C@H](O)[C@H]5O)[C@H](O)C4O)[C@H](O)C3O)[C@H](O)C2O)[C@@H]1O (stereo partly drawn) [1,4-β-Xylopentaose]

test system: T1, R_09-02; experiment: oligosaccharide hydrolysis, released sugar assay; Michaelis-Menten fit; format: biochemical; conditions: pH 6.0 (20 mM sodium acetate), 34°C; read-out: K m (mM)^1
Text: oligosaccharide hydrolysis, released sugar assay; Michaelis-Menten fit on R_09-02

Row | Km [mM] | Structure (SMILES)
11 | 1.43 ± 0.84 | OC[C@H]1O[C@H](OC[C@H]2O[C@H](OC[C@H]3O[C@H](O[C@]4(CO)O[C@H](CO)[C@@H](O)[C@@H]4O)[C@H](O)[C@@H](O)[C@@H]3O)[C@H](O)[C@@H](O)[C@H]2O)[C@H](O)[C@@H](O)[C@H]1O [Stachyose]
12 | 0.035 ± 0.004 | OC[C@H]1O[C@H](OC[C@H]2O[C@H](O[C@]3(CO)O[C@H](CO)[C@@H](O)[C@@H]3O)[C@H](O)[C@@H](O)[C@@H]2O)[C@H](O)[C@@H](O)[C@H]1O [Raffinose]

test system: T1, R_09-02; experiment: released glucose, glucose oxidase kit; Michaelis-Menten fit; format: biochemical; conditions: pH 6.0 (20 mM sodium acetate), 34°C; read-out: K m (mM)^1
Text: released glucose, glucose oxidase kit; Michaelis-Menten fit on R_09-02

Row | Km [mM] | Structure (SMILES)
13 | 0.44 ± 0.13 | OC[C@H]1O[C@H](O[C@H]2[C@H](O)[C@@H](O)[C@@H](O[C@H]3[C@H](O)[C@@H](O)C(O)O[C@@H]3CO)O[C@@H]2CO)[C@H](O)[C@@H](O)[C@@H]1O (some centres unmarked) [Maltotriose]
14 | 0.53 ± 0.17 | OC[C@H]1O[C@H](O[C@H]2[C@H](O)[C@@H](O)[C@@H](O[C@H]3[C@H](O)[C@@H](O)[C@@H](O[C@H]4[C@H](O)[C@@H](O)C(O)O[C@@H]4CO)O[C@@H]3CO)O[C@@H]2CO)[C@H](O)[C@@H](O)[C@@H]1O (some centres unmarked) [Maltotetraose]
15 | 2.57 ± 0.19 | OC[C@H]1O[C@H](O[C@H]2[C@H](O)[C@@H](O)C(O)O[C@@H]2CO)[C@H](O)[C@@H](O)[C@@H]1O (some centres unmarked) [Maltose]

More lines, now with the values behind:

Row | Structure (SMILES) | Km [mM]
16 | OC[C@H]1O[C@H](O[C@H]2[C@H](O)[C@@H](O)[C@@H](O[C@H]3[C@H](O)[C@@H](O)[C@@H](O[C@H]4[C@H](O)[C@@H](O)[C@@H](O[C@H]5[C@H](O)[C@@H](O)C(O)O[C@@H]5CO)O[C@@H]4CO)O[C@@H]3CO)O[C@@H]2CO)[C@H](O)[C@@H](O)[C@@H]1O (some centres unmarked) [Maltopentaose] | 1.64 ± 0.21
17 | OC[C@H]1O[C@@H](O[C@H]2[C@H](O)[C@@H](O)C(O)O[C@@H]2CO)[C@H](O)[C@@H](O)[C@H]1O (some centres unmarked) [Lactose] | 0.05 ± 0.0039

test system: T1, R_09-02; experiment: released arabinose, lactose/galactose (Rapid) assay kit; Michaelis-Menten fit; format: biochemical; conditions: pH 6.0 (20 mM sodium acetate), 34°C; read-out: K m (mM)^1
Text: released arabinose, lactose/galactose (Rapid) assay kit; Michaelis-Menten fit on R_09-02

Row | Km [mM] | Structure (SMILES)
18 | 0.1 ± 0.05 | OC[C@@H]1O[C@@H](OC[C@@H]2O[C@@H](OC[C@@H]3OC(O)[C@H](O)[C@H]3O)[C@H](O)[C@H]2O)[C@H](O)[C@H]1O (stereo partly drawn) [1,5-α-L-Arabinotriose]
19 | 4.23 ± 0.74 | OC[C@@H]1O[C@@H](OC[C@@H]2O[C@@H](OC[C@@H]3O[C@@H](OC[C@@H]4OC(O)[C@H](O)[C@H]4O)[C@H](O)[C@H]3O)[C@H](O)[C@H]2O)[C@H](O)[C@H]1O (stereo partly drawn) [1,5-α-L-Arabinotetraose]
20 | 0.027 ± 0.01 | OC[C@@H]1O[C@@H](OC[C@@H]2OC(O)[C@H](O)[C@H]2O)[C@H](O)[C@H]1O (stereo partly drawn) [1,5-α-L-Arabinobiose]
